Experimental findings from patent US5079150A, “High sensitivity detection of peroxidase activity” (Becton, Dickinson and Company, priority 1988, dated 1992) are described below.

Molecules are shown by their SMILES.

The target in one assay is T1, Horseradish peroxidase (Armoracia rusticana, UniProt P00433).
T1 sequence (P00433 31-353): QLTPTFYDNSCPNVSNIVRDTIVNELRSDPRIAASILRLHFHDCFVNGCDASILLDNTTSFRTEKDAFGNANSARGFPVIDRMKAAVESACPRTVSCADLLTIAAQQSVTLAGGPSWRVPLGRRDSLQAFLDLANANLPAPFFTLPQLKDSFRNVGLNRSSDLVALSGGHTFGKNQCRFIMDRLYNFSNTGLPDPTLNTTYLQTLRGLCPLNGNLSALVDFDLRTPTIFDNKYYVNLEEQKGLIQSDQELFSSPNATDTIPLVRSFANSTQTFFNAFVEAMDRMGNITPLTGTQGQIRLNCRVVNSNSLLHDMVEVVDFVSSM
In words: Comparison of substrates for HRP detection on membranes, reflectance densitometer. In kind it is biochemical. As to conditions: substrate 2 mg/mL, approximately three minutes. The procedure:
Horseradish peroxidase was diluted serially in 10-fold steps in a buffer containing 51 mM phosphate, 24 mM citrate, pH 5.0. Spot volumes of 1 μL of each stock were applied to either nitrocellulose (0.45 micron, Schleicher and Schuell) or IMMUNODYNE™ nylon immunoaffinity membrane (5 micron, Pall). The membranes were allowed to air dry and then immersed in filtered substrate solutions containing 2 mg/mL of substrate compound and 0.68 μL/mL of 30% hydrogen peroxide in citrate/phosphate buffer. The reaction was quenched after approximately three minutes with a water rinse. The colored spots were quantitated with a reflectance densitometer (Gretag model 183). The results are presented in Table II in arbitrary units of color density.

The target of assay [1] is T2, HRP conjugated anti RSV monoclonal antibody (Armoracia rusticana, UniProt P00433).
T2 sequence (P00433 31-338 limits assumed): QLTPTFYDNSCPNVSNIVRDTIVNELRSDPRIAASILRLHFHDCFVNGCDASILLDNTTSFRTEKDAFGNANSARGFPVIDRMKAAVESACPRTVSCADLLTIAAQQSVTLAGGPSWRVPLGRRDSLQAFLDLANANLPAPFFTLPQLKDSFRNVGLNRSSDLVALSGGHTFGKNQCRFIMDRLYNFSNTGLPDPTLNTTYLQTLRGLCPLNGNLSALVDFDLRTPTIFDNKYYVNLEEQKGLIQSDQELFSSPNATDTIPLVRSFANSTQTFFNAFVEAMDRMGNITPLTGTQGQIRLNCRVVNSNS
In words: Sandwich immunoassay for RSV on IMMUNODYNE nylon membrane, HRP-labelled antibody, colored spot read with densitometer. In kind it is biochemical, Horseradish. The settings on record: for intensity of the colored spot (color density): substrate 2 mg/mL. How it is done:
Ten μg of anti RSV antibody in 2 μl of carbonate buffer (50 mM, pH 9.5) were applied to an IMMUNODYNE™ nylon membrane with a micropipette. The membrane was incubated with a TRIS buffered solution of casein to block the remaining sites, and dried. The membrane was assembled into a device which allows liquids to be passed through the membrane and into an absorbent pad. Serial dilutions of a 300 ng stock of RSV infected HEp-2 cells were prepared in a buffer containing TRIS, sodium chloride, EDTA and a detergent. 150 μl of this material was passed through the membrane. Another antibody coated membrane was treated with 300 ng of uninfected cells as a control.
The membranes were washed with TRIS buffered saline (TBS) and incubated with HRP conjugated anti RSV monoclonal antibody in TRIS containing casein. After two washings with TBS buffer, the membranes were treated with citrate/phosphate buffered (pH 5.0) solutions of DAT and DAB (2 mg/mL) containing hydrogen peroxide. After a five minute incubation, the enzymatic reaction was stopped by the addition of TBS, and the intensity of the colored spots was compared using a densitometer (Model 183, Gretag Ltd., CH-8105 Regensdorf, Switzerland). The background control substracted results of this experiment are presented in Table 1 in arbitrary units of color density.

[2] abbreviates: IMMUNODYNE nylon membrane, amount of HRP 30 pg.
Where [3] appears, read: IMMUNODYNE nylon membrane, amount of HRP 0.3 ng.
The mark [4] stands for this setting: IMMUNODYNE nylon membrane, amount of HRP 3 ng.
Where [5] appears, read: IMMUNODYNE nylon membrane, amount of HRP 30 ng.
[6] abbreviates: IMMUNODYNE nylon membrane, amount of HRP 0.3 mg.
The mark [7] stands for this setting: Nitrocellulose membrane, amount of HRP 30 pg.
The mark [8] stands for this setting: Nitrocellulose membrane, amount of HRP 0.3 ng.
[9] abbreviates: Nitrocellulose membrane, amount of HRP 3 ng.
[10] abbreviates: Nitrocellulose membrane, amount of HRP 30 ng.
Setting [11] is: Nitrocellulose membrane, amount of HRP 0.3 mg.
[12] abbreviates: 11 ng of infected cells, pH 5.0, five minute incubation.
Setting [13] is: 33 ng of infected cells, pH 5.0, five minute incubation.
The mark [14] stands for this setting: 100 ng of infected cells, pH 5.0, five minute incubation.
Setting [15] is: 300 ng of RSV infected HEp-2 cells, pH 5.0, hydrogen peroxide, five minute incubation, background control subtracted.
Where [16] appears, read: Control: 300 ng of uninfected cells, pH 5.0, five minute incubation.

Take `Nc1cc(Cl)c(Cl)cc1N` [4,5-Dichloro-1,2-phenylenediamine]: the “color density of spot” value at Horseradish peroxidase (setting [2]) was “.00 arbitrary units”; at Horseradish peroxidase (setting [3]), “.00 arbitrary units”; at Horseradish peroxidase (setting [4]), “.10 arbitrary units”; on Horseradish peroxidase (setting [5]) it was “.41 arbitrary units”; on Horseradish peroxidase (setting [6]) it was “.48 arbitrary units”; at Horseradish peroxidase (setting [7]), “.02 arbitrary units”. The “color density of spot” value on Horseradish peroxidase (setting [8]) was “.10 arbitrary units”; on Horseradish peroxidase (setting [9]) it was “.31 arbitrary units”; at Horseradish peroxidase (setting [10]), “.43 arbitrary units”; on Horseradish peroxidase (setting [11]) it was “.60 arbitrary units”.

Consider `Cc1cc(N)c(N)cc1C` [4,5-Dimethyl-1,2-phenylenediamine], for which the “color density of spot” value is recorded as “.00 arbitrary units” at Horseradish peroxidase (setting [2]); “.05 arbitrary units” at Horseradish peroxidase (setting [3]); “.22 arbitrary units” on Horseradish peroxidase (setting [4]); “.50 arbitrary units” at Horseradish peroxidase (setting [5]); “.53 arbitrary units” on Horseradish peroxidase (setting [6]); “.03 arbitrary units” on Horseradish peroxidase (setting [7]). For the same compound, the “color density of spot” value at Horseradish peroxidase (setting [8]) is “.11 arbitrary units”; at Horseradish peroxidase (setting [9]), “.22 arbitrary units”; on Horseradish peroxidase (setting [10]) it was “.43 arbitrary units”; on Horseradish peroxidase (setting [11]) it was “.55 arbitrary units”.

For the compound `Nc1ccc(Cl)cc1N` [4-Chloro-1,2-phenylenediamine], the “color density of spot” value on Horseradish peroxidase (setting [2]) was “.06 arbitrary units”; on Horseradish peroxidase (setting [3]) it was “.12 arbitrary units”; at Horseradish peroxidase (setting [4]), “.68 arbitrary units”; on Horseradish peroxidase (setting [5]) it was 1.89 arbitrary units; at Horseradish peroxidase (setting [6]), 2.24 arbitrary units; on Horseradish peroxidase (setting [7]) it was “.09 arbitrary units”. Besides, the “color density of spot” value at Horseradish peroxidase (setting [8]) is “.26 arbitrary units”; at Horseradish peroxidase (setting [9]), “.55 arbitrary units”; at Horseradish peroxidase (setting [10]), “.87 arbitrary units”; on Horseradish peroxidase (setting [11]), 1.25 arbitrary units.

With `Nc1ccc(-c2ccc(N)c(N)c2)cc1N` [DAB, 3,3'-diaminobenzidine, reference compound], the “color density of spot” value on Horseradish peroxidase (setting [2]) is on record as “.00 arbitrary units”; on Horseradish peroxidase (setting [3]), “.04 arbitrary units”; on Horseradish peroxidase (setting [4]) it was “.22 arbitrary units”; on Horseradish peroxidase (setting [5]) it was “.78 arbitrary units”; at Horseradish peroxidase (setting [6]) it was 1.67 arbitrary units; at Horseradish peroxidase (setting [7]), “.00 arbitrary units”. The “color density of spot” value on Horseradish peroxidase (setting [8]) was “.04 arbitrary units”; at Horseradish peroxidase (setting [9]) it was “.22 arbitrary units”; at Horseradish peroxidase (setting [10]) it was “.43 arbitrary units”; on Horseradish peroxidase (setting [11]), 1.03 arbitrary units. Also, the “intensity of the colored spot (color density)” value in assay [1] (setting [12]) is “.04 arbitrary units”; in assay [1] (setting [13]), “.03 arbitrary units”; in assay [1] (setting [14]) it was “.04 arbitrary units”; in assay [1] (setting [15]), “.07 arbitrary units”; in assay [1] (setting [16]) it was 0 arbitrary units. The “color reading on the densitometer, in words” value in assay [1] (300 ng of infected cells) is given as “barely perceptible color reading”.

For `Cc1ccc(N)c(N)c1` [DAT, 3,4 Diaminotoluene], the “color density of spot” value is reported as “.04 arbitrary units” at Horseradish peroxidase (setting [2]); “.21 arbitrary units” at Horseradish peroxidase (setting [3]); “.54 arbitrary units” on Horseradish peroxidase (setting [4]); “.85 arbitrary units” at Horseradish peroxidase (setting [5]); “.99 arbitrary units” at Horseradish peroxidase (setting [6]); “.03 arbitrary units” at Horseradish peroxidase (setting [7]). The “color density of spot” value on Horseradish peroxidase (setting [8]) was “.09 arbitrary units”; at Horseradish peroxidase (setting [9]) it was “.10 arbitrary units”; on Horseradish peroxidase (setting [10]) it was “.28 arbitrary units”; on Horseradish peroxidase (setting [11]) it was “.38 arbitrary units”. Further, the “intensity of the colored spot (color density)” value in assay [1] (setting [12]) was “.28 arbitrary units”; in assay [1] (setting [13]), “.37 arbitrary units”; in assay [1] (setting [14]), “.57 arbitrary units”; in assay [1] (setting [15]), “.82 arbitrary units”; in assay [1] (setting [16]), “.24 arbitrary units”. For the same compound, the “amount of infected cells down to which stable, deeply colored spots well above control values were obtained” value in assay [1] (RSV infected HEp-2 cells) is recorded as 33 ng.

`Cc1cc(-c2cc(C)c(N)c(C)c2)cc(C)c1N` [TMB, 3,3',5,5'-tetramethylbenzidine, reference compound]: the “color density of spot” value is given as “.00 arbitrary units” at Horseradish peroxidase (setting [2]); “.00 arbitrary units” on Horseradish peroxidase (setting [3]); “.11 arbitrary units” at Horseradish peroxidase (setting [4]); “.19 arbitrary units” at Horseradish peroxidase (setting [5]); “.23 arbitrary units” on Horseradish peroxidase (setting [6]); “.01 arbitrary units” at Horseradish peroxidase (setting [7]). In addition, the “color density of spot” value on Horseradish peroxidase (setting [8]) is listed as “.04 arbitrary units”; at Horseradish peroxidase (setting [9]), “.08 arbitrary units”; on Horseradish peroxidase (setting [10]) it was “.09 arbitrary units”; at Horseradish peroxidase (setting [11]), “.09 arbitrary units”.
